Laboratory results as given in US20120040977A1, “INHIBITORS OF HCV NS5A” (PRESIDIO PHARMACEUTICALS, INC., priority 2009, published 2012).

Tested on: HCV genotype 1b replicon
Assay: HCV replicon assay (HCV 1b_Huh-Luc/Neo-ET cell line, luciferase readout)
Assay type: cell-based
Conditions: Hepatitis C virus; bicistronic genotype 1b replicon in Huh 7 cells, 72 h incubation, luciferase enzyme activity; read-out: Inhibition of HCV genotype 1b
Experimental: Biological activity of the compounds of the invention was determined using an HCV replicon assay. The HCV 1b_Huh-Luc/Neo-ET cell line persistently expressing a bicistronic genotype 1b replicon in Huh 7 cells was obtained from ReBLikon GMBH. This cell line was used to test compound inhibition using luciferase enzyme activity readout as a measurement of compound inhibition of replicon levels.
On Day 1 (the day after plating cells), each compound is added in triplicate to the cells. Plates are incubated for 72 h prior to determining luciferase levels. Enzyme activity was measured using a Bright-Glo Kit (cat. number E2620) manufactured by Promega Corporation. The following equation was used to generate a percent control value for each compound.
% Control=(Average Compound Value/Average Control)*100
The EC50 value was determined using GraphPad Prism and the following equation:
Y=Bottom+(Top−Bottom)/(1+10̂((LogIC50−X)*HillSlope))
EC50 values of compounds are determined several times in the replicon assay. […]

SMILES	EC50 [nM]
CC(C)(C)OC(=O)N1CCOCC1C(=O)Nc1ccc(-c2ccc(-c3cnc([C@@H]4CCCN4C(=O)OC(C)(C)C)[nH]3)cc2)cc1 (stereo partly shown) [Compound 6]	10 to 999
COC(=O)N[C@@H](C(=O)N[C@@H](C)c1ncc(-c2ccc(-c3ccc(C(=O)NC[C@@H]4CCCN4C(=O)[C@H](NC(=O)OC)c4ccccc4)nc3)cc2)[nH]1)c1ccccc1 [Compound 93]	< 1
CC(C)[C@@H](NC(=O)OC(C)(C)C)C(=O)N1CCC[C@H]1C(=O)Nc1ccc(-c2ccc(-c3cnc([C@@H]4CCCN4C(=O)[C@H](NC(=O)OC(C)(C)C)C(C)C)[nH]3)cc2)cc1 [Compound 15]	1 to 9.9
COC(=O)N[C@H](C(=O)N1CCC[C@H]1C(=O)Nc1ccc(-c2ccc(-c3cnc([C@@H]4CCCN4C(=O)[C@@H](NC(=O)OC)C4CCOCC4)[nH]3)cc2)cc1)C1CCOCC1 [Compound 110]	1 to 9.9
C[C@@H](NC(=O)OC(C)(C)C)C(=O)N1CCC[C@H]1c1ncc(-c2ccc(Oc3ccc(-c4cnc([C@@H]5CCCN5C(=O)[C@@H](C)NC(=O)OC(C)(C)C)[nH]4)cc3)cc2)[nH]1 [Compound 47]	1 to 9.9
C[C@@H](NC(=O)C1CC1)C(=O)N1CCOC[C@H]1C(=O)Nc1ccc(-c2ccc(-c3cnc([C@@H]4CCCN4C(=O)[C@@H](C)NC(=O)C4CC4)[nH]3)cc2)cc1 [Compound 22]	1 to 9.9
C[C@@H](NC(=O)[C@@H]1CCCN1C(=O)[C@H](NC(=O)C1CC1)c1ccccc1)c1ccc(-c2ccc(-c3cnc([C@@H]4CCCN4C(=O)[C@H](NC(=O)C4CC4)c4ccccc4)[nH]3)cc2)cc1 [Compound 40]	< 1
CC(C)[C@@H](NC(=O)OC(C)(C)C)C(=O)N1CCOC[C@H]1C(=O)Nc1ccc(-c2ccc(-c3cnc([C@@H]4CCCN4C(=O)[C@H](NC(=O)OC(C)(C)C)C(C)C)[nH]3)cc2)cc1 [Compound 13]	10 to 999
C[C@@H](NC(=O)C1CC1)C(=O)N1CCC[C@H]1c1ncc(-c2ccc(Oc3ccc(-c4cnc([C@@H]5CCCN5C(=O)[C@@H](C)NC(=O)C5CC5)[nH]4)cc3)cc2)[nH]1 [Compound 58]	10 to 999
COC(=O)N[C@@H](C(=O)N1CCC[C@H]1CNC(=O)c1ccc(-c2ccc(-c3cnc([C@@H]4CCCN4C(=O)[C@H](NC(=O)OC)c4ccccc4)[nH]3)cn2)cc1)c1ccccc1 [Compound 79]	< 1
CC(C)(C)OC(=O)N[C@@H](C(=O)N1CCOC[C@H]1C(=O)Nc1ccc(-c2ccc(-c3cnc([C@@H]4CCCN4C(=O)[C@H](NC(=O)OC(C)(C)C)c4ccccc4)[nH]3)cc2)cc1)c1ccccc1 [Compound 21]	< 1
CC(C)[C@@H](NC(=O)OC(C)(C)C)C(=O)N1CCC[C@H]1c1ncc(-c2ccc(Oc3ccc(-c4cnc([C@@H]5CCCN5C(=O)[C@H](NC(=O)OC(C)(C)C)C(C)C)[nH]4)cc3)cc2)[nH]1 [Compound 48]	1 to 9.9
CC(C)(C)OC(=O)N[C@@H](C(=O)N1CCC[C@H]1c1ncc(-c2ccc(Sc3ccc(-c4cnc([C@@H]5CCCN5C(=O)[C@H](NC(=O)OC(C)(C)C)c5ccccc5)[nH]4)cc3)cc2)[nH]1)c1ccccc1 [Compound 46]	< 1
COC(=O)N[C@@H](C(=O)N1CCC[C@H]1CNC(=O)c1ccc(-c2ccc(-c3cnc([C@@H]4CCCN4C(=O)[C@@H](c4ccccc4)N4CCCCC4)[nH]3)cc2)cc1)c1ccccc1 [Compound 61]	< 1
CC(C)(C)OC(=O)N1CCC[C@H]1C(=O)Nc1ccc(-c2ccc(-c3cnc([C@@H]4COCCN4C(=O)OC(C)(C)C)[nH]3)cc2)cc1 [Compound 5]	> 1000
COC(=O)N[C@H](C(=O)N1CCC[C@H]1C(=O)Nc1ccc(-c2ccc(-c3cnc([C@@H]4CCCN4C(=O)[C@@H](NC(=O)OC)C(C)C)[nH]3)cc2)cc1)C(C)C [Compound 109]	10 to 999

SMILES	EC50 [nM]
CC(C)(C)OC(=O)N[C@@H](C(=O)N1CCC[C@H]1C(=O)NCc1ccc(-c2ccc(-c3cnc([C@@H]4CCCN4C(=O)[C@H](NC(=O)OC(C)(C)C)c4ccccc4)[nH]3)cc2)cc1)c1ccccc1 [Compound 33]	< 1
C[C@@H](NC(=O)[C@@H]1CCCN1C(=O)[C@H](NC(=O)OC(C)(C)C)c1ccccc1)c1ccc(-c2ccc(-c3cnc([C@@H]4CCCN4C(=O)[C@H](NC(=O)OC(C)(C)C)c4ccccc4)[nH]3)cc2)cc1 [Compound 39]	< 1
COC(=O)N[C@H](C(=O)N1CCC[C@H]1C(=O)N[C@H](C)c1ccc(-c2ccc(-c3cnc([C@@H]4CCCN4C(=O)[C@@H](NC(=O)OC)C4CCOCC4)[nH]3)cc2)cc1)C1CCOCC1 [Compound 103]	10 to 999
COC(=O)N[C@@H](C(=O)N1CCC[C@H]1CNC(=O)c1ccc(-c2ccc(-c3cnc([C@@H]4CCCN4C(=O)[C@H](NC(=O)N4CCN(C)CC4)c4ccccc4)[nH]3)cc2)cc1)c1ccccc1 [Compound 68]	< 1
COC(=O)N[C@H](C(=O)N1CCC[C@H]1C(=O)NCc1ccc(-c2ccc(-c3cnc([C@@H]4CCCN4C(=O)[C@@H](NC(=O)OC)C(C)C)[nH]3)cn2)cc1)C(C)C [Compound 116]	10 to 999
COC(=O)N[C@H](C(=O)N1CCC[C@H]1C(=O)Nc1ccc(-c2ccc3nc([C@@H]4CCCN4C(=O)[C@@H](NC(=O)OC)C(C)C)[nH]c3c2)cc1)C(C)C [Compound 73]	1 to 9.9
COC(=O)N[C@H](C(=O)N1CCC[C@H]1C(=O)NCc1ccc(-c2ccc(-c3cnc([C@@H]4CCCN4C(=O)[C@@H](NC(=O)OC)[C@@H](C)OC)[nH]3)cc2)cc1)[C@@H](C)OC [Compound 106]	10 to 999
COC(=O)N[C@H](C(=O)N1CCC[C@H]1C(=O)NCc1ccc(-c2ccc(-c3cnc([C@@H]4CCCN4C(=O)[C@@H](NC(=O)OC)C4CCOCC4)[nH]3)cc2)cc1)C1CCOCC1 [Compound 107]	10 to 999
CC(C)(C)OC(=O)N[C@@H](C(=O)N1CCC[C@H]1C(=O)Nc1ccc(-c2ccc(-c3cnc([C@@H]4COCCN4C(=O)[C@H](NC(=O)OC(C)(C)C)c4ccccc4)[nH]3)cc2)cc1)c1ccccc1 [Compound 8]	< 1
O=C(N[C@@H](C(=O)N1CCC[C@H]1c1ncc(-c2ccc(Sc3ccc(-c4cnc([C@@H]5CCCN5C(=O)[C@H](NC(=O)N5CCOCC5)c5ccccc5)[nH]4)cc3)cc2)[nH]1)c1ccccc1)N1CCOCC1 [Compound 51]	< 1
O=C(NC[C@@H]1CCCN1C(=O)[C@H](NC(=O)N1CCOCC1)c1ccccc1)c1ccc(-c2ccc(-c3cnc([C@@H]4CCCN4C(=O)[C@H](NC(=O)N4CCOCC4)c4ccccc4)[nH]3)cc2)cc1 [Compound 56]	< 1
COC(=O)N[C@@H](C(=O)N1CCC[C@H]1c1ncc(-c2ccc(-c3ccc(C(=O)NC[C@@H]4CCCN4C(=O)[C@@H](c4ccccc4)N4CCCCC4)cc3)cc2)[nH]1)c1ccccc1 [Compound 64]	< 1
CC(C)[C@@H](NC(=O)C1CC1)C(=O)N1CCOC[C@H]1C(=O)Nc1ccc(-c2ccc(-c3cnc([C@@H]4COCCN4C(=O)[C@H](NC(=O)C4CC4)C(C)C)[nH]3)cc2)cc1 [Compound 25]	1 to 9.9
C[C@H](NC(=O)[C@@H]1CCCN1C(=O)[C@H](NC(=O)OC(C)(C)C)c1ccccc1)c1ccc(-c2ccc(-c3cnc([C@@H]4CCCN4C(=O)[C@H](NC(=O)OC(C)(C)C)c4ccccc4)[nH]3)cc2)cc1 [Compound 34]	< 1
COC(=O)N[C@H](C(=O)N1CCC[C@H]1C(=O)NCc1ccc(-c2ccc(-c3cnc([C@@H]4CCCN4C(=O)[C@@H](NC(=O)OC)C(C)C)[nH]3)cc2)cc1)C(C)C [Compound 105]	10 to 999
